Several values for one entry are separate records, joined by “and”; a condition that tells them apart may be missing. Equal values may be shown once. Bounds are passed on as bounds.

What all share (type): in vivo, human
A short description of one series: Waist circumference. The conditions noted are these: 1.5 mg once weekly, n=6. The source says: (§1) Exploratory outcomes included change from baseline in body weight, waist circumference, body-mass index (BMI) and change in homeostatic model assessment of β-cell function (HOMA-β) and insulin resistance (HOMA-IR).
A short description of a further series: Body-mass index (BMI). The conditions noted are these: Dulaglutide group; mean.
Excerpt: as §1

Series [1] has as its system Chinese patients with T2D. Briefly: Homeostatic model assessment of β-cell function (HOMA-β). The conditions noted are these: 1.5 mg once weekly, n=6.
Excerpt: as §1

The subject of series [2] is Chinese patients with T2D. Put plainly: Change from baseline in heart rate, standard 12-lead electrocardiogram. The note with it: 1.5 mg once weekly. The source says: (§2) Primary outcomes of the study were the safety and tolerability of IBI362. Safety assessment included adverse events, physical examinations, laboratory tests (including lipase, amylase and calcitonin level measures), vital signs and 12-lead electrocardiogram. Adverse events were categorized according to the Medical Dictionary for Regulatory Activities system organ classes (SOCs) and preferred terms. Treatment-emergent adverse events (TEAEs) were monitored from the time of informed consent to the safety follow-up period. The severity of TEAEs (mild, moderate or severe) and the association between an event and the study drug were assessed by investigators based on pre-specified criteria.
CFB in heart rate (beats/min),
Fig. S1: Change from baseline in heart rate over time.
Data are from standard 12-lead electrocardiogram, measured at 1 hour before each dose in the morning from week 0 to week 11, and 168 hours after the last dose (week 12). Data are plotted as means +/- SD. CFB = change from baseline; SD = standard deviation.Source data are provided as […]
(1 picture or pasted object on this page, not shown here)

In series [3] the test system is Chinese patients with T2D. Put plainly: Treatment-emergent adverse events (MedDRA SOC/preferred term), 12-week once-weekly s.c. treatment plus 8-week safety follow-up, phase 1b. The conditions noted are these: 1.5 mg once weekly, n=6. The method, then:
The study included a 3-week screening period, a 12-week treatment period and an 8-week safety follow-up period. During the 12-week treatment period, IBI362 or placebo was subcutaneously administered once weekly with one of the three dose-escalation schedules: 1.0–2.0–3.0 mg for the 3.0 mg cohort, 1.5–3.0–4.5 mg for the 4.5 mg cohort and 2.0–4.0–6.0 mg for the 6.0 mg cohort (each dose level administered for 4 weeks). The 6.0 mg cohort started dosing after tolerability evaluation of 1.5 mg dosing in the 4.5 mg cohort. The internal unblinded safety monitoring group was responsible for the safety monitoring. Dulaglutide was subcutaneously administered once weekly at a fixed dose of 1.5 mg. Patients who were on metformin prior to the enrolment of this trial were required to continue their previous dose of metformin throughout the trial. Investigators and authorized study personnel in each centre recorded the study data into the electronic case report forms (eCRFs), which were reviewed and validated by clinical research associates. The data in the eCRFs were submitted to the electronic data capture database.
as §2
Safety analyses were done in the safety population (defined as all patients who received at least one dose of the study treatment). Pharmacokinetic analyses were done in the pharmacokinetic population (defined as all patients who received at least one dose of IBI362 and had at least one valid plasma concentration assessment).

Series [4] concerns Chinese patients with T2D. Briefly: Glycated haemoglobin A1c (HbA1c). The note with it: 1.5 mg once weekly; for HbA1c at week 12, single patients: each line a single patient. The method, then: HbA1c (2200101, Bio-Rad, USA), blood glucose (05168791190, Roche Diagnostics, Germany), insulin (12017547122, Roche Diagnostics, Germany), C peptide (03184897190, Roche Diagnostics, Germany), total GLP-1 (GLP-1 [7–36] amide and its metabolite, GLP-1 [9–36] amide, 10-1278-01, Mercodia AB, Sweden) and OXM (AL-139, AnshLabs, USA) tests were performed according to the manufactures’ instruction manuals in a central laboratory (KingMed Diagnostics, Guangzhou, China). HbA1c was measured using a Bio-rad D-100 Haemoglobin Testing System (Bio-rad). Blood glucose was measured using a Roche Cobas c702 analyser (Roche Diagnostics). Insulin and C peptide were measured using a Roche […] analyser (Roche Diagnostics). GLP-1 and OXM were measured using a Tecan Infinite M Plex microplate reader (TECAN).
Standard non-compartmental pharmacokinetics methods were used to analyze IBI362 plasma concentration data using Pkanalix 2020R1 (Lixoft, Antony, France). Secondary efficacy outcomes included change from baseline to week 12 in HbA1c, fasting plasma glucose (FPG), fasting insulin levels, change from baseline to week 12 in post-mixed-meal tolerance test (post-MTT) glucose, insulin, C peptide, GLP-1 and OXM levels, as well as seven-point self-measured blood glucose (SMBG) profile.
The analyses for change from baseline in HbA1c, FPG, post-MTT glucose AUC0–4 h and body weight were performed using the mixed-effect model for repeated measures (MMRM) with least-squares means and standard error provided. The MMRM included the corresponding baseline value, treatment, visit and treatment-by-visit as fixed effects and patient as a random effect. Mean change or mean percent change from baseline were analysed using a restricted maximum likelihood (REML)‐based repeated measures approach in combination with the Newton Raphson Algorithm. The fix effect of visit was fitted as a repeated effect and an unstructured covariance matrix was used. In case of non-converge, matrix like Variance Components and Compound Symmetry will be tested in a subsequent order until model‐convergence is achieved. The Kenward-Roger degree of freedom was used in estimating fixed effects. No missing data imputation was conducted. For HbA1c, FPG and body weight, point estimate of treatment difference versus placebo and 90% CI were provided for each IBI362 dose group and the dulaglutide group, with nominal p values.

For “Dulaglutide: open-label active reference, subcutaneously once weekly at a fixed dose of 1.5 mg [reference compound]”, the “Change from baseline to week 12 in waist circumference, mean” value in the series “Waist circumference” is listed as -1.4 cm. For the same substance, the “Change from baseline to week 12 in waist circumference, individual” value in the series “Waist circumference” (single patients) was -0.5 cm and -1.5 cm and -2.6 cm and -4.9 cm and 1.5 cm. Besides, the “Change from baseline to week 12 in BMI” value in “Body-mass index (BMI)” is -0.19 kg/m2. Further, the “Change from baseline to week 12 in HOMA-β, mean” value in series [1] is 30.9%. Also, in series [1] (single patients), the “Change from baseline to week 12 in HOMA-β, individual” value is 31.2% and 37.1% and 18.9% and 5.2% and 22.2% and 70.7%. In addition, the “heart rate, mean change from baseline (bound)” value in series [2] was below 10 beats per minute. For the same substance, in series [3], the “Infections and infestations (SOC)” value is reported as 0 number of patients (%); the “Upper respiratory tract infection” value is 0 number of patients (%); the Urinary tract infection is reported as 0 number of patients (%). In addition, in series [4] (n=6), the “Percent of patients with change from baseline to week 12 in HbA1c <1.0%” value worked out at 16.7%; the “Percent of patients with change from baseline to week 12 in HbA1c ≥1.0% and <1.5%” value is on record as 50.0%; the “Percent of patients with change from baseline to week 12 in HbA1c ≥1.5% and <2.0%” value is 0.0%; the “Percent of patients with change from baseline to week 12 in HbA1c ≥2.0%” value amounted to 33.3%. Also, in series [4], the “HbA1c at week 12, single patients” value was 6.4% and 6.6% and 6.5% and 7.2% and 6.0%. Moreover, the “HbA1c at week 12, single patients” value in series [4] (listed as dulaglutide) was 5.5%. Besides, the “Change from baseline in HbA1c, LS mean” value in series [4] (week 4, n=6, MMRM) is -1.03%. In addition, in series [4] (week 8, n=6, MMRM), the “Change from baseline in HbA1c, LS mean” value is listed as -1.72%. In addition, in series [4] (week 12, n=6), the “patients achieving ≥1.5% reductions in HbA1c from baseline” value is 33.3%. In series [4] (week 12, n=6, MMRM), the “Change from baseline in HbA1c, LS mean (SE)” value is listed as -1.98%. Besides, the “HbA1c: ETD versus placebo, LS mean (90% CI)” value in series [4] (week 12, MMRM) is reported as −1.11%.

(Values after paper PMC9232612, “A phase 1b randomised controlled trial of a glucagon-like peptide-1 and glucagon receptor dual agonist IBI362 (LY3305677) in Chinese patients with type 2 diabetes” (Nature Communications, 2022).)
